Results as given in article PMC6941124 (International Journal of Molecular Sciences, 2019).
Where “and” joins values, the source holds several entries; their conditions need not be identical. Equal entries are not always repeated.

What was measured:
[1] = target: CK1δ wild type (GST-CK1δ) (Homo sapiens, UniProt P48730); experiment: in vitro kinase assay, GST-CK1δ wild type; format: biochemical; details: for Kinase activity of CK1δ in presence of inhibitor: 10 µM inhibitor, initial screening; for IC50: dilution series 0.005−10 µM, mean ± standard error, triplicate
CK1δ wild type (GST-CK1δ), sequence (P48730 whole entry, the tested form may be a part): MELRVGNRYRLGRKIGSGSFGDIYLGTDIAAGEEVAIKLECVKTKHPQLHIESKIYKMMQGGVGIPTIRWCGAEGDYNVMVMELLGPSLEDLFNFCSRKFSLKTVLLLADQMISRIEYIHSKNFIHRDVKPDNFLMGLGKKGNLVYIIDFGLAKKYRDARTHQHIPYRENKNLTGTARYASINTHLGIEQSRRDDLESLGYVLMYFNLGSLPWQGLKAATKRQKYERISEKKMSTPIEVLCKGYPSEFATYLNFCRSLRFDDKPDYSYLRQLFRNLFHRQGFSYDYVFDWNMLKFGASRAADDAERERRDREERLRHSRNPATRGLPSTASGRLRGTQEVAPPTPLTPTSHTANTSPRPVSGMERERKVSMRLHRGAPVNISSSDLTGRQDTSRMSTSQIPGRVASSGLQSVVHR
Experimental: Overexpression and purification of GST-CK1δ fusion proteins, either wild type or mutant, were performed as described previously.
Each kinase assay reaction was performed in kinase buffer (25 mM Tris-HCl (pH 7.5), 10 μM ATP, 10 mM MgCl2, 100 μM EDTA) in presence of purified GST-CK1δ kinase as source of enzyme (either wild type or mutant), an assay-specific substrate (α-casein, GST-p53^1−64, or GST-β-catenin^1−181), and radiolabeled ATP (2 μCi [γ-^32P]-ATP). For performing Michaelis–Menten analysis increasing substrate concentrations were used (α-casein: 0.39−25 μM; GST-p53^1−64: 0.09−1.87 μM; GST-β-catenin^1−181: 0.07−1.32 μM). For biological evaluation of small molecule inhibitors (SMIs), each inhibitor compound was either tested at 10 μM concentration for initial screening or by using a dilution series (0.005−10 µM) for determination of IC50 values. DMSO was used as control. Reactions were incubated for 30 min at 30 °C and reactions were stopped using 5x SDS-loading buffer (250 mM Tris-HCl [pH 6.8], 25% (v/v) β-mercaptoethanol (MSH), 50% (v/v) glycerol, 10% (w/v) SDS, 0.5% (w/v) bromphenol blue). Subsequently, samples were separated by SDS-PAGE using 12.5% acrylamide gels, stained with Coomassie, and phosphorylated substrates were visualized on X-ray film. Incorporation of radiolabeled phosphate was quantified by scintillation counting of Coomassie-stained substrate bands. Defined dilutions of the reaction master mix were counted as well in order to convert results obtained as counts per minute (CPM) to units of transferred phosphate in pmol/min. Michaelis–Menten analysis was performed using GraphPad Prism 6 (GraphPad Software, San Diego, CA, USA).

[2] = test system: SW480 colon cancer cells; experiment: MTT viability assay, SW480; format: cell-based, human; details: 10 µM, 48 h, initial screening (Figure 10a)
Experimental: (§1) Parental HeLa cells, as well as HeLa CSNK1D knock-out cells (CK1δ^−/−) (generated by CRISP/Cas9 technology and provided by EDIGENE, Beijing, China), were cultured in Dulbecco’s Modified Eagle medium (DMEM). HCT-116 and HT-29 colon cancer cells were cultured in McCoy’s 5A medium whereas SW480 and SW620 colon cancer cells were cultured in Leibovitz’s L-15 medium. All media were supplemented with 10% (v/v) fetal bovine serum (FBS), 100 units/mL penicillin, and 100 µg/mL streptomycin. DMEM-based medium for the culture of HeLa CSNK1D knock-out cells was additionally supplemented with 1 μg/mL puromycin. Cell cultures were maintained at 37 °C in a humidified atmosphere containing 5% CO2. Cells were transfected using Effectene transfection reagent (Qiagen, Hilden, Germany) according to the manufacturer’s instructions. For selection of stably transfected clones, transfected cells were grown in selective medium, containing 0.6 mg/mL of G-418 (Calbiochem-Merck Millipore, Darmstadt, Germany).
(§2) For performing MTT viability assays, cells were seeded in a 96-well plate (5 × 10^4 cells/well for HeLa cells (parental, CK1δ^−/−, or CK1δ^−/− cells stably transfected with wild type or mutant CK1δ), HCT-116, and HT-29 cells or 7.5 × 10^4 cell/well for SW480 and SW620 cells). After 24 h, old medium was replaced with fresh medium containing either the small molecule of interest or DMSO as control. After 48 h of treatment, 10 μL MTT (5 mg/mL) was added and incubated at 37 °C for 4 h. The medium was then gently removed and 100 μL of acidic isopropanol was added (90% (v/v) isopropanol, 10% (v/v) 1 N HCl). Cell culture plates were then shaken for 30 min at room temperature. Absorbance was measured at 570 nm with TriStar^2 LB942 Microplate Reader (Berthold Technologies, Bad Wildbad, Germany) and data analysis was performed using GraphPad Prism 6 (GraphPad Software, San Diego, CA, USA).

[3] = target: CK1α (Homo sapiens, UniProt P48729); experiment: in vitro kinase assay, CK1α; format: biochemical; details: 10 µM inhibitor, initial screening
CK1α, sequence (P48729 whole entry): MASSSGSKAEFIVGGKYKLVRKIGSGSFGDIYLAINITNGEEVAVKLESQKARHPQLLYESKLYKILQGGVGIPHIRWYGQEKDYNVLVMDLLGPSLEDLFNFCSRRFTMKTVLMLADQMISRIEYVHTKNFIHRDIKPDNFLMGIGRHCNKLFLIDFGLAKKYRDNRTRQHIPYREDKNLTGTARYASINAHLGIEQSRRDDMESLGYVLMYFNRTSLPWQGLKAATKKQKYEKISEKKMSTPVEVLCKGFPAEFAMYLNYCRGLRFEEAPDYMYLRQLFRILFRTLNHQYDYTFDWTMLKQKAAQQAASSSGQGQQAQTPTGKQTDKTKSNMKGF

[4] = test system: HCT-116 colon cancer cells; experiment: MTT viability assay, HCT-116; format: cell-based; details: 48 h, dose series (Figure S2)
Experimental: as §1, with “For selection of stably transfected clones, transfected cells were grown in selective medium, containing 0.6 mg/mL of G-418 (Calbiochem-Merck Millipore, Darmstadt, Germany).” left out
(§3) For performing MTT viability assays, cells were seeded in a 96-well plate (5 × 10^4 cells/well for HeLa cells (parental, CK1δ^−/−, or CK1δ^−/− cells stably transfected with wild type or mutant CK1δ), HCT-116, and HT-29 cells or 7.5 × 10^4 cell/well for SW480 and SW620 cells). […] Absorbance was measured at 570 nm with TriStar^2 LB942 Microplate Reader (Berthold Technologies, Bad Wildbad, Germany) and data analysis was performed using GraphPad Prism 6 (GraphPad Software, San Diego, CA, USA).

[5] = test system: HeLa CK1δ−/− cells expressing CK1δ T67S; experiment: MTT viability assay, HeLa CK1δ−/− cells expressing CK1δ T67S; format: cell-based; details: 5 μM, 48 h
Experimental: as §1, with “For selection of stably transfected clones, transfected cells were grown in selective medium, containing 0.6 mg/mL of G-418 (Calbiochem-Merck Millipore, Darmstadt, Germany).” left out
as §3

[6] = target: CK1ε (Homo sapiens, UniProt P49674); experiment: in vitro kinase assay, CK1ε; format: biochemical; details: 10 µM inhibitor, initial screening
CK1ε, sequence (P49674 whole entry): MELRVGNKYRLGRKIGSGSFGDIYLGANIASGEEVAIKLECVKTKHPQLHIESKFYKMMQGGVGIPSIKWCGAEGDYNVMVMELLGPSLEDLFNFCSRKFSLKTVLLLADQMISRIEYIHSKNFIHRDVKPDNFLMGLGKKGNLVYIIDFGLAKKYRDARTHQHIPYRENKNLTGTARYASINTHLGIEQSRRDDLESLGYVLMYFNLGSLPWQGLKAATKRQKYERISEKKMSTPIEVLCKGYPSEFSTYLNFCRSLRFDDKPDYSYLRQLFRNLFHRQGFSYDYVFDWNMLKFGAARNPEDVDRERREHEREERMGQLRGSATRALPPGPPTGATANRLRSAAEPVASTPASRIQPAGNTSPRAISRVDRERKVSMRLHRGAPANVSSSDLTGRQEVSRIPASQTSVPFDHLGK

[7] = test system: HeLa CK1δ−/− cells; experiment: MTT viability assay, HeLa CK1δ−/− cells; format: cell-based; details: 5 μM, 48 h
Experimental: as §1, §2

[8] = test system: SW620 colon cancer cells; experiment: MTT viability assay, SW620; format: cell-based, human; details: 48 h; for Reduction of cell viability, SW620: 10 µM, initial screening (Figure 10a)
Experimental: as §1, §2

[9] = test system: HeLa CK1δ−/− cells expressing CK1δ R127Q; experiment: MTT viability assay, HeLa CK1δ−/− cells expressing CK1δ R127Q; format: cell-based; details: 5 μM, 48 h
Experimental: as §1, with “For selection of stably transfected clones, transfected cells were grown in selective medium, containing 0.6 mg/mL of G-418 (Calbiochem-Merck Millipore, Darmstadt, Germany).” left out
as §3

[10] = test system: HeLa CK1δ−/− cells expressing CK1δ R168H; experiment: MTT viability assay, HeLa CK1δ−/− cells expressing CK1δ R168H; format: cell-based; details: 5 μM, 48 h
Experimental: as §1, with “For selection of stably transfected clones, transfected cells were grown in selective medium, containing 0.6 mg/mL of G-418 (Calbiochem-Merck Millipore, Darmstadt, Germany).” left out
as §3

[11] = target: CK1γ; experiment: in vitro kinase assay, CK1γ; format: biochemical; details: 10 µM inhibitor, initial screening
[12] = test system: HT-29 colon cancer cells; experiment: MTT viability assay, HT-29; format: cell-based; details: 10 µM, 48 h, initial screening (Figure 10a)
Experimental: as §1, §2

| SMILES | Kinase activity of CK1δ in presence of inhibitor [1] | IC50 [1] | Reduction of cell viability, SW480 [2] | Reduction of CK1α activity [3] | Reduction of cell viability, HCT-116 ([4]; 0.625 µM) | Cell viability of HeLa CK1δ−/− cells expressing CK1δ T67S vs CK1δ WT [5] | Kinase activity of CK1ε in presence of inhibitor [6] | Cell viability of HeLa CK1δ−/− compared to parental cells or HeLa CK1δ+/+ cells [7] | Reduction of cell viability, SW620 [8] | Dose-dependent effects on SW620 cell viability ([8]; 0.625 to 20 µM, MTT (Figure S2)) | EC50 ([8]; Homo sapiens, SW-620, 0.625-20 µM, MTT, read-out: EC50 (SW620), cell viability) | Cell viability of HeLa CK1δ−/− cells expressing CK1δ R127Q vs CK1δ WT [9] | Cell viability of HeLa CK1δ−/− cells expressing CK1δ R168H vs CK1δ WT [10] | Kinase activity of CK1γ in presence of inhibitor [11] | Reduction of cell viability, HT-29 [12] | Reduction of cell viability, HCT-116 ([4]; 1.25 µM) |
| --- | --- | --- | --- | --- | --- | --- | --- | --- | --- | --- | --- | --- | --- | --- | --- | --- |
| COc1ccc(Cn2c(SCC(=O)Nc3nc4ccc(C(F)(F)F)cc4s3)nccc2=O)cc1 [Compound 20, 2-((3-(4-Methoxybenzyl)-4-oxo-3,4-dihydropyrimidin-2-yl)thio)-N-(6-(trifluoromethyl)benzo[d]thiazol-2-yl)acetamide] | strongly inhibited | 90 nM and 86 nM | approximately 35% | at least 50% | approximately 30% | no mutant-specific effects | strongly inhibited | significantly less affected | about 60% | clear dose-dependent effects | 3000 nM | no mutant-specific effects | no mutant-specific effects | not affected | approximately 35% |  |
| O=C(CSc1nccc(=O)n1Cc1ccccc1F)Nc1nc2ccc(C(F)(F)F)cc2s1 [Compound 22] | strongly inhibited | 240 ± 40 nM | approximately 35% | at least 50% |  |  | strongly inhibited |  | 25% |  |  |  |  | not affected | approximately 35% | approximately 30% |
